# Data as given in publication PMC9692552, “Activity and Synergy of Cu-ATCUN Antimicrobial Peptides” (International Journal of Molecular Sciences, 2022).
# Like-named read-outs stand apart in the source and are kept apart here. Ends that are not written are not given here.
# Tests used:
# A. baumannii BAA747 [1] = conditions: cited from earlier work
# From the text: (§1) Table 2 MIC Values (µM) for SMAP-29 Derivatives. * Previously reported data from reference r comparison. | column: OV3 *; Cu-1 *; Cu-2 *; Cu-3 *; Cu-4 * || Table 4 MIC values for antimicrobial peptides utilized in this study. MIC values for a variety of the presented peptides have been previously determined in alternative conditions; values here are the result of experimental efforts to determine MICs under the conditions utilized for further study of FIC potential, with the exception of Sub5 and Sub5-01, previously characterized in our laboratory, w | column: Sub5; Sub5-01
# E. coli 25922 [2] = conditions: cited from earlier work
# From the text: as §1
# E. faecium 700221 (VRE) = conditions: cited from earlier work
# From the text: as §1
# K. pneumoniae 700603 = conditions: cited from earlier work
# From the text: as §1
# P. aeruginosa 27583 = conditions: cited from earlier work
# From the text: as §1
# S. aureus 43300 (MRSA) = conditions: cited from earlier work
# From the text: as §1
# [3] = in SDS, as previously reported, cited from earlier work
# From the text: Table 1 SMAP-29 derivatives used in this study and others with sequences and defining characteristics. ^a Estimated charge calculated from Innovagen’s peptide property calculator. ^b The helical activity of peptides as previously reported in the referenced manuscripts. ND: not determined. | column: % Helical (SDS) ^b
# E. coli 25922 [4] = assay: FIC of peptide pairs (two-way dilution, 96-well plate); format: cell-based, Escherichia coli; conditions: single peptide on the FIC plate
# Method: (§2) Determining MIC values informed decisions on testing peptides in combination. Fractional inhibitory concentrations determine the ability of test articles to act in concert against a pathogen. FIC determination is experimentally similar to MIC determination, except one test article is diluted down the wells and another is diluted across the wells of the 96-well plate in order to test the synergism of two peptides. […] Synergy is defined as an FIC of less than or equal to 0.5, meaning there is a four-fold reduction in the concentration of each peptide required for inhibition. Any number above 4 indicates a deleterious interaction that reduces the effectiveness of each peptide, and a value between 0.5 and 1 can be considered additive (Equation (2)).
# (§3) Fractional inhibitory concentrations (FICs) were determined in a manner similar to MIC determinations but with serial dilutions of two peptides running both horizontally and vertically across the 96-well plate. Determination of the FIC can be seen in Equation (2), where FIC is the fractional inhibitory concentration, [A] is the concentration of substrate A at MIC in combination, [B] is the concentration of substrate B at MIC in combination, and MICA and MICB are the MIC of substrate A and substrate B, respectively. FIC = fractional inhibitory concentration, [A] = concentration of A at MIC in combination, [B] = concentration of B at MIC in combination, MICA = minimum inhibitory concentration of A, and MICB = minimum inhibitory concentration of B. When FIC ≤ 0.5 the results are synergistic. If FIC > 4, the results are antagonistic, and when FIC > 0.5, the results are indifferent or additive. (2) FIC=[A]/MICA+ [B]/MICB
# MRSA 43300 [5] = assay: as above; format: cell-based, S. aureus; conditions: single peptide on the FIC plate
# Method: as §2, §3
# E. coli 25922 [6] = conditions: single peptide on the FIC plate, cited from earlier work
# From the text: Figure 6 Summary of peptide interactions in E. coli 25922 from data presented in Results and Supplemental Material. Synergistic (or non-synergistic) interactions for CP10A, TempL, OV3-00 and OV3-01 with other peptides are grouped as shown. Parental and ATCUN derivatives are outlined in the same shape with the average FIC value shown in parentheses. TEXT PRINTED IN THE PICTURE: Sub5: E. coli 25922, CP10A, Synergistic: (0.4); E. coli 25922, TempL, Additive/Indifferent: (1) | Sub5-01: E. coli 25922, CP10A, Synergistic: (0.42); E. coli 25922, TempL, Additive/Indifferent: (0.78) | Mag2-01: E. coli ... || page 3: For Tables S3-S10: FIC Index = [A]/[MICA] + [B]/[MICB], where [A] and [B] are the concentrations of respective peptides at which no growth was observed when dosed in combination, and [MICA] and [MICB] are the concentrations where no growth was observed when dosed separately. The data from each experiment repeated in duplicate or triplicate is shown and bolded data in the final row is the average FIC value. Error is reported as the standard deviation of the mean. Table S3. FIC values for Interactions of CP10A and TempL in E. coli 25922. * Previously reported data from reference for ... || page 4: Table S4. FIC values for the non-ATCUN containing parental peptides in E. coli 25922. A CP10A CP10A CP10A TempL TempL TempL TempL B Sub5 13 Mag2 OV3-00 Sub5 TRP Mag2 OV3-00 [A] 2/4/4 2/2/1 2/2/0.5 2/2/2 1/1/1 0.25/1/2 2/2/2 MICA 16/16/16 4/4/2 4/4/4 4/4/4 2/4/2 4/4/4 16/16/16 [B] 1/0.5/0.25 2/2/2 0.5/1/1 4/4/4 4/4/4 4/2/0.125 4/1/1 MICB 4/2/4 4/4/4 2/2/2 8/8/8 8/8/8 8/8/8 8/2/2 FIC 0.375/0.328/0.5 1/1/1 0.75/1/0.625 1/1/1 1/0.75/1 0.56/0.5/0.52 0.625/0.625/0.625 FICAvg 0.40 ± 0.04 1 0.78 ± 0.2 1 0.9 ± 0.14 0.53 ± 0.03 0.625 Table S5. FIC Values for ATCUN peptide derivatives in MRSA 433 ...
# MRSA 43300 [7] = system: MRSA 43300; design: method as in ref [13] of the supplement ([11] in main text); conditions: single peptide on the FIC plate, cited from earlier work
# A. baumannii BAA747 [8] = system: A. baumannii BAA747; design: method as in ref 13 of the supplement ([11] in main text); conditions: Acinetobacter baumannii, single peptide on the FIC plate, ref 13 of the supplement ([11] in main text), cited from earlier work
# [9] = previously reported data, ref [8]
# [10] = P. aeruginosa (27583), previously reported data, ref [8]
# [11] = taken from earlier work, ref [7]
# [12] = P. aeruginosa 27583, taken from earlier work, ref [7]
# [13] = replicate 1, ref [13] of the supplement ([11] in main text)
# [14] = replicate 2, ref [13] of the supplement ([11] in main text)
# [15] = replicate 3, ref [13] of the supplement ([11] in main text)
substance,measurement,setting,value
"GGHIRRIIRKIIHIIKK-NH2 [Cu-3, ATCUN-OV3 derivative from the authors' earlier work]",MIC,A. baumannii BAA747 [1]; [9],5.3 µM
same,MIC,E. coli 25922 [2]; [9],>16 µM
same,MIC,E. faecium 700221 (VRE); [9],8 µM
same,MIC,K. pneumoniae 700603; [9],16 µM
same,MIC,P. aeruginosa 27583; [10],>16 µM
same,MIC,S. aureus 43300 (MRSA); [9],16 µM
same,% Helical (SDS),[3]; ref [8],35% [8]
"IRRIIRKIIHIIKK-NH2 [OV3, SMAP-29 derivative, parental peptide of Cu-1 to Cu-4]",MIC,A. baumannii BAA747 [1]; [9],1 µM
same,MIC,E. coli 25922 [2]; [9],>16 µM
same,MIC,E. faecium 700221 (VRE); [9],16 µM
same,MIC,K. pneumoniae 700603; [9],>16 µM
same,MIC,P. aeruginosa 27583; [10],16 µM
same,MIC,S. aureus 43300 (MRSA); [9],>16 µM
same,% Helical (SDS),[3]; ref [8],38% [8]
"GGHRRWKIVVIRWRR-NH2 [Sub5-01, ATCUN derivative of Sub5, previously characterized by the authors]","MICA/MICB, concentration with no growth when dosed separately",E. coli 25922 [4]; replicate 1,8 µM
same,"MICA/MICB, concentration with no growth when dosed separately",E. coli 25922 [4]; replicate 2,8 µM
same,"MICA/MICB, concentration with no growth when dosed separately",E. coli 25922 [4]; replicate 3,8 µM
same,"MICA/MICB, concentration with no growth when dosed separately",MRSA 43300 [5]; replicate 1,4 µM
same,"MICA/MICB, concentration with no growth when dosed separately",MRSA 43300 [5]; replicate 2,4 µM
same,"MICA/MICB, concentration with no growth when dosed separately",MRSA 43300 [5]; replicate 3,4 µM
same,MIC,A. baumannii BAA747 [1]; [11],1 µM
same,MIC,E. coli 25922 [2]; [11],2.7 µM
same,MIC,E. faecium 700221 (VRE); [11],0.4 µM
same,MIC,K. pneumoniae 700603; [11],2 µM
same,MIC,P. aeruginosa 27583; [12],2 µM
same,MIC,S. aureus 43300 (MRSA); [11],1 µM
same,"MICA/MICB, concentration with no growth when dosed separately",E. coli 25922 [6]; [13],4 µM
same,"MICA/MICB, concentration with no growth when dosed separately",E. coli 25922 [6]; [14],4 µM
same,"MICA/MICB, concentration with no growth when dosed separately",E. coli 25922 [6]; [15],4 µM
same,"MICA/MICB, concentration with no growth when dosed separately",MRSA 43300 [7]; [13],16 µM
same,"MICA/MICB, concentration with no growth when dosed separately",MRSA 43300 [7]; [14],16 µM
same,"MICA/MICB, concentration with no growth when dosed separately",MRSA 43300 [7]; [15],16 µM
same,"MICA/MICB, concentration with no growth when dosed separately",A. baumannii BAA747 [8]; replicate 1,1 µM
same,"MICA/MICB, concentration with no growth when dosed separately",A. baumannii BAA747 [8]; replicate 2,2 µM
same,"MICA/MICB, concentration with no growth when dosed separately",A. baumannii BAA747 [8]; replicate 3,1 µM
"KNLRRIIRKIIHIIKKYGPTILRIIRIIG [OV, SMAP-29 derivative]",% Helical (SDS),[3]; ref [17],86% [17]
"GGHGIRRIIRKIIHIIKKGGC-NH2 [Cu-2, ATCUN-OV3 derivative from the authors' earlier work]",MIC,A. baumannii BAA747 [1]; [9],9.3 µM
same,MIC,E. coli 25922 [2]; [9],3 µM
same,MIC,E. faecium 700221 (VRE); [9],8 µM
same,MIC,K. pneumoniae 700603; [9],>16 µM
same,MIC,P. aeruginosa 27583; [10],12 µM
same,MIC,S. aureus 43300 (MRSA); [9],4 µM
same,% Helical (SDS),[3]; ref [8],56% [8]
"GGHIRRIIRKIIHIIKKGGC-NH2 [Cu-4, ATCUN-OV3 derivative from the authors' earlier work]",MIC,A. baumannii BAA747 [1]; [9],10.7 µM
same,MIC,E. coli 25922 [2]; [9],1.3 µM
same,MIC,E. faecium 700221 (VRE); [9],3.3 µM
same,MIC,K. pneumoniae 700603; [9],8 µM
same,MIC,P. aeruginosa 27583; [10],4 µM
same,MIC,S. aureus 43300 (MRSA); [9],1.5 µM
same,% Helical (SDS),[3]; ref [8],64% [8]
"GGHGIRRIIRKIIHIKK-NH2 [Cu-1, ATCUN-OV3 derivative from the authors' earlier work]",MIC,A. baumannii BAA747 [1]; [9],2.7 µM
same,MIC,E. coli 25922 [2]; [9],>16 µM
same,MIC,E. faecium 700221 (VRE); [9],16 µM
same,MIC,K. pneumoniae 700603; [9],16 µM
same,MIC,P. aeruginosa 27583; [10],>16 µM
same,MIC,S. aureus 43300 (MRSA); [9],16 µM
same,% Helical (SDS),[3]; ref [8],14% [8]
"RRWKIVVIRWRR-NH2 [Sub5, bactenecin derivative]","MICA/MICB, concentration with no growth when dosed separately",E. coli 25922 [4]; replicate 1,8 µM
same,"MICA/MICB, concentration with no growth when dosed separately",E. coli 25922 [4]; replicate 2,8 µM
same,"MICA/MICB, concentration with no growth when dosed separately",E. coli 25922 [4]; replicate 3,8 µM
same,"MICA/MICB, concentration with no growth when dosed separately",MRSA 43300 [5]; replicate 1,4 µM
same,"MICA/MICB, concentration with no growth when dosed separately",MRSA 43300 [5]; replicate 2,4 µM
same,"MICA/MICB, concentration with no growth when dosed separately",MRSA 43300 [5]; replicate 3,4 µM
same,MIC,A. baumannii BAA747 [1]; [11],0.8 µM
same,MIC,E. coli 25922 [2]; [11],3.3 µM
same,MIC,E. faecium 700221 (VRE); [11],0.5 µM
same,MIC,K. pneumoniae 700603; [11],1.7 µM
same,MIC,P. aeruginosa 27583; [12],4 µM
same,MIC,S. aureus 43300 (MRSA); [11],2 µM
same,"MICA/MICB, concentration with no growth when dosed separately",E. coli 25922 [6]; [13],4 µM
same,"MICA/MICB, concentration with no growth when dosed separately",E. coli 25922 [6]; [14],2 µM
same,"MICA/MICB, concentration with no growth when dosed separately",E. coli 25922 [6]; [15],4 µM
same,"MICA/MICB, concentration with no growth when dosed separately",MRSA 43300 [7]; [13],1 µM
same,"MICA/MICB, concentration with no growth when dosed separately",MRSA 43300 [7]; [14],2 µM
same,"MICA/MICB, concentration with no growth when dosed separately",MRSA 43300 [7]; [15],2 µM
same,"MICA/MICB, concentration with no growth when dosed separately",A. baumannii BAA747 [8]; replicate 1,2 µM
same,"MICA/MICB, concentration with no growth when dosed separately",A. baumannii BAA747 [8]; replicate 2,2 µM
same,"MICA/MICB, concentration with no growth when dosed separately",A. baumannii BAA747 [8]; replicate 3,2 µM
